Data on two compounds can be found in ChEMBL document CHEMBL1144878, “N-(omega-(4-(2-methoxyphenyl)piperazin-1-yl)alkyl)carboxamides as dopamine D2 and D3 receptor ligands” (J Med Chem, 2003).

In one test the target is D(2) dopamine receptor (Homo sapiens, UniProt P14416). The test can be described thus: biochemical.
Test [1] addresses D(3) dopamine receptor (Homo sapiens). As to the kind of experiment: Effective concentration for Dopamine receptor D3 was determined.
Test [2] relates to D(3) dopamine receptor (Homo sapiens). The test can be described thus: Intrinsic activity for Dopamine receptor D3 was determined.
Test [3] deals with T1, D(3) dopamine receptor (Homo sapiens, UniProt P35462). As to the kind of experiment: biochemical.
Target sequence in this assay (P35462 whole entry): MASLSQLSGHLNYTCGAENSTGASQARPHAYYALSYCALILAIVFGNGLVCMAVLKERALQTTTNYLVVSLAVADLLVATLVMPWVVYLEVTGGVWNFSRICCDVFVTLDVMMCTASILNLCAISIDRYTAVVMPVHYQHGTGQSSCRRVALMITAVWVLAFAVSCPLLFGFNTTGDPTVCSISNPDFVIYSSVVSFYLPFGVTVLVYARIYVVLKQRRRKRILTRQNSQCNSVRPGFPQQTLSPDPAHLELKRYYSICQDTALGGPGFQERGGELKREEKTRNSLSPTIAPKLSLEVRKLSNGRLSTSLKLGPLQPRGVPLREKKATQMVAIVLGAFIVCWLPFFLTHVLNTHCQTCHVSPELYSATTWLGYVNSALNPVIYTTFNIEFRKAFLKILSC
Description: Binding affinity for human dopamine receptor D3 by displacing [125I]iodosulpiride expressed in CHO cells
Test [4] has as its target T1, D(3) dopamine receptor. As to the kind of experiment: Effective concentration for Dopamine receptor D3 was determined. The class given is functional.
Target sequence in this assay (P35462 whole entry, looked up): as the sequence (P35462 whole entry) above

D(2) dopamine receptor, sequence (P14416 whole entry): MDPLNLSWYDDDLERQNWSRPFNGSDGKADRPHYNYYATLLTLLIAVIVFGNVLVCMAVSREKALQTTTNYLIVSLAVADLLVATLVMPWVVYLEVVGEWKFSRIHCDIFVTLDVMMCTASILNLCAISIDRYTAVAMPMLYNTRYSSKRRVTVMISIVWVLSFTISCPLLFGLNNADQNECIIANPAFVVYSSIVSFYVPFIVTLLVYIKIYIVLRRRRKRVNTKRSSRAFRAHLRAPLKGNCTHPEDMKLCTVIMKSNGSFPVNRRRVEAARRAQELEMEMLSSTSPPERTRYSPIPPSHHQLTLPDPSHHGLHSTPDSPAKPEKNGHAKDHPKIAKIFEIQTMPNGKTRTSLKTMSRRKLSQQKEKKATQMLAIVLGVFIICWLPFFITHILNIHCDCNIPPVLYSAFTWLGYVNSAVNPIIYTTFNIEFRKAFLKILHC
Description for D(2) dopamine receptor: Binding affinity for human dopamine receptor D2 by displacing [125I]iodosulpiride expressed in CHO cells

One may read the Ki as a dissociation constant, usually derived from enzyme kinetics or from competition with a known ligand. Higher therefore signals weaker binding. Usually EC50 stands for the concentration at which the effect is half-maximal. A higher EC50 goes with a need for much substance. Take `COc1ccccc1N1CCN(CCCCNC(=O)c2ccc(I)cc2)CC1`: the results for the inhibition constant (Ki) on D(2) dopamine receptor and on D(3) dopamine receptor [3] were 146 nM and 3.9 nM, respectively. This compound also registered a 50% effective concentration (EC50) in test [1] of 1.2 nM. Further, the Intrinsic activity in test [2] was found to be 0.5.

For `COc1ccccc1N1CCN(CCCCNC(=O)c2cc3ccccc3cn2)CC1`, the Ki at D(2) dopamine receptor stood at 27.5 nM; at D(3) dopamine receptor [3], 1.48 nM. Besides, a half-maximal effect on D(3) dopamine receptor [4] (EC50) was put at 2.5 nM.
